Source: US5625043A, “Anthracyclines with unusually high activity against cells resistant to doxorubicin and its analogs” (Priebe; Waldemar, priority 1995, dated 1997)

Columns and labels:
J774.2 cells = assay: Cytotoxicity against J774.2 cells; assay type: cell-based, murine; conditions: Mus musculus, J774.2; read-out: ID50 (the source's name)
J7/A300 cells = assay: Cytotoxicity against AD 198-resistant J7/A300 cells; assay type: cell-based, murine
J7/40V cells = assay: Cytotoxicity against vinblastine-resistant J7/40V cells; assay type: cell-based, murine
purified DNA = conditions: compared with anthracycline; cited from earlier work
RNA versus DNA synthesis = conditions: compared with anthracycline; cited from earlier work
G2/M blockade = conditions: compared with anthracycline; cited from earlier work
membrane = conditions: compared with anthracycline; cited from earlier work
[1] = test system: purified mammalian topoisomerase II; conditions: cited from earlier work
DNA = conditions: alkaline elution assays; cited from earlier work
[2] = test system: cultured murine and human tumor cells; conditions: compared with anthracycline; cited from earlier work
[3] = test system: P388 and L1210 leukemic cells and B16-BL6 melanoma cells; conditions: cited from earlier work
[4] = test system: variant CCRF-CEM leukemic cells; conditions: cited from earlier work
[5] = test system: transplanted MDR L1210 cells; conditions: cited from earlier work
AD 198^R cells = AD 198^R cells versus drug-sensitive cells; cited from earlier work
[6] = test system: MDR J774.2 cells selected with vinblastine; conditions: MDR J774.2 selected with vinblastine; cited from earlier work
P-gp = conditions: not told; cited from earlier work

Q: With `CCCCC(=O)OCC(=O)[C@]1(O)Cc2c(O)c3c(c(O)c2[C@@H](O[C@H]2C[C@H](NCc4ccccc4)[C@H](O)[C@H](C)O2)C1)C(=O)c1c(OC)cccc1C3=O` [AD 198] as the compound, how does the IC50 (J774.2 cells) read?
A: 49 nM

Q: What about the “resistance of cell line to the selecting drug” value (J7/A300 cells; AD 198 resistant J7/A300 cells) of the same compound?
A: 15 -fold

Q: What about the “RI J7/A300” value (J7/A300 cells; J7/A300 versus J774.2) of the same compound?
A: 15

Q: And the IC50 (J7/A300 cells; Mus musculus, J7/A300, read-out: ID50 (the source's name))?
A: 748 nM

Q: What about the “RI J7/40V” value (J7/40V cells; J7/40V versus J774.2) of the same compound?
A: 14

Q: What about the IC50 (J7/40V cells; Mus musculus, J7/40V, read-out: ID50 (the source's name)) of the same compound?
A: 663 nM

Q: What about the “binding to purified DNA” value (purified DNA) of the same compound?
A: weaker binding to purified DNA

Q: What about the “inhibition of RNA versus DNA synthesis” value (RNA versus DNA synthesis) of the same compound?
A: preferential inhibition of RNA versus DNA synthesis

Q: And the G2/M blockade (G2/M blockade)?
A: irreversible G2 /M blockade

Q: And the membrane lytic activity (membrane)?
A: pronounced membrane lytic activity

Q: And the “inhibition of purified mammalian topoisomerase II” value [1]?
A: lack of inhibition

Q: What about the “protein-associated DNA strand breaks” value (DNA) of the same compound?
A: significant levels of protein-associated DNA strand breaks

Q: What about the cytotoxicity [2] of the same compound?
A: enhanced cytotoxicity

Q: And the “ability to circumvent MDR” value [3]?
A: ability to circumvent MDR

Q: And the “ability to circumvent MDR and resistance due to altered topoisomerase II activity” value [4]?
A: ability to circumvent MDR

Q: What about the efficacy in vivo [5] of the same compound?
A: limited efficacy

Q: What about the “intracellular level of AD 198” value (AD 198^R cells) of the same compound?
A: high levels of intracellular AD 198 similar to that of drug-sensitive cells

Q: And the cross-resistance [6]?
A: cross-resistant to AD 198

Q: What about the “transport by P-gp from the cell” value (P-gp) of the same compound?
A: inability of P-gp to transport AD 198 from the cell
